Inhibition data for 15 compounds are collected here from patent publication US20090062258A1, “FUSED PYRIMIDINE DERIVATIVE AND USE THEREOF” (Takeda Pharmaceutical Company Limited, priority 2005, published 2009).

The assay deals with T1, human GnRH receptor (Homo sapiens, UniProt P30968).
T1 construct: expressed in transfected cells; host or cells: CHO (Chinese Hamster Ovary) cells; membrane fraction
T1 sequence (P30968 1-328): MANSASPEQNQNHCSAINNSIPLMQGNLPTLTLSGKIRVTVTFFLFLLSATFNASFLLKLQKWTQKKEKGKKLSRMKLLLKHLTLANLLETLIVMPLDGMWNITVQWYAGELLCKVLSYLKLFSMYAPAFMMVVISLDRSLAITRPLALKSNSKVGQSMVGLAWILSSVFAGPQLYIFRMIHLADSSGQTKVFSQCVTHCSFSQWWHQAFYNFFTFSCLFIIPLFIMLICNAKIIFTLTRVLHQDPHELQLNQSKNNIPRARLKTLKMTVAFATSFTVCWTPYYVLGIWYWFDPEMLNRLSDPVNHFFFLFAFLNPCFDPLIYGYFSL
Kind of assay: 125I-leuprorelin binding assay (binding inhibitory rate). The following applies: 10 nM of the testing compound; 800 pM 125I-leuprorelin; 10 μg human GnRH receptor membrane fraction (CHO cells); room temperature 1 hour; read-out: Binding inhibitory ratio (%). As to the method:
10 μL of a 3×10^−4 M aqueous solution of leuprorelin and 10 μL of 0.01 mg/mL lactoperoxidase were placed in a tube, and 10 μL (37 MBq) of a Na^125I solution was added thereto. After stirring, 10 μL of 0.001% H2O2 was added to allow the mixture to undergo a reaction at room temperature for 20 minutes. 700 μL of a 0.05% TFA solution was added to stop the reaction, and purification by reversed phase HPLC was carried out. The conditions for HPLC are described below. ^125I-leuprorelin was eluted at a retention time of 26 to 27 minutes.
Human GnRH receptor-expressing CHO cells were cultured until the cells were reached a 90% confluent state in a T-150 flask. The cells were separated using 0.02% EDTA-PBS and were centrifuged at 500×g for 5 minutes. A homogenate buffer for cells (10 mM NaHCO3, 1 mM EDTA, 1 mM PMSF, 0.5 μg/mL Pepstatin, 2 μg/mL Leupeptin, pH 7.4) was added to the cell pellet, and the mixture was homogenized with a Polytron homogenizer. After centrifugation of the homogenate at 4° C. and at 1000×g for 10 minutes, the supernatant was placed in an ultracentrifuge tube and was centrifuged at 4° C. and at 49,300×g for 1 hour to obtain a precipitate of a membrane fraction. This precipitate was suspended in an assay buffer (50 mM Tris-HCl, 150 mM NaCl, 5 mM EDTA, pH 7.4) and then dispensed and stored at −80° C., so that the suspension can be thawed every time it is taken for use.
A ^125I-leuprorelin binding assay was carried out using 200 μL of an assay buffer containing 10 μg of human GnRH receptor membrane fraction, 800 pM of ^125I-leuprorelin and 10 nM of the testing compound.
The non-specific binding radioactivity was measured in the presence of 1 μM of non-labeled leuprorelin. After leaving the mixture to stand at room temperature for 1 hour, ^125I-leuprorelin was captured on a GF/C filter (PerkinElmer, Inc.), and the filter was washed with ice-cold 50 mM Tris-HCl (pH 7.4) using a cell harvester. After drying the filter, a liquid scintillation cocktail for microplate was added, and the membrane-bound radioactivity was measured using a TopCount.
The value of (TB-SB)/(TB-NSB)×100 (SB: radioactivity upon addition of the compound, TB: maximum binding radioactivity, NSB: non-specific binding radioactivity) was calculated to determine the binding inhibitory rate in the presence of 10 nM of each testing material.
As to `CNC(=O)c1scc2[nH]c(=O)n(-c3cc(S(=O)(=O)N4CCCc5ccccc54)ccc3Cl)c(=O)c12` [Example 16, 3-[2-Chloro-5-(3,4-dihydroquinolin-1(2H)-ylsulfonyl)phenyl]-N-methyl-2,4-dioxo-1,2,3,4-tetrahydrothieno[3,4-d]pyrimidine-5-carboxamide], the inhibition at 0.01 µM worked out at 96%. In the case of `N#Cc1cccc(N(C(=O)c2cc(-n3c(=O)[nH]c4csc(C(=O)O)c4c3=O)c(Cl)s2)C2CC2)c1Cl` [Example 40, 3-(2-Chloro-5-{[(2-chloro-3-cyanophenyl)(cyclopropyl)amino]carbonyl}-3-thienyl)-2,4-dioxo-1,2,3,4-tetrahydrothieno[3,4-d]pyrimidine-5-carboxylic acid], the inhibition at 0.01 µM was 101%. In the case of `CCN(C(=O)c1csc(-n2c(=O)[nH]c3csc(C(=O)O)c3c2=O)c1)c1ccccc1` [Example 33-2, 3-(4-{[Ethyl(phenyl)amino]carbonyl}-2-thienyl)-2,4-dioxo-1,2,3,4-tetrahydrothieno[3,4-d]pyrimidine-5-carboxylic acid], the inhibition at 0.01 µM was determined as 85%. On to `N#Cc1cccc(N(C(=O)c2cc(-n3c(=O)[nH]c4csc(CO)c4c3=O)c(Cl)s2)C2CC2)c1Cl` [Example 39, 5-Chloro-N-(2-chloro-3-cyanophenyl)-N-cyclopropyl-4-[5-(hydroxymethyl)-2,4-dioxo-1,2-dihydrothieno[3,4-d]pyrimidine-3(4H)-yl]thiophene-2-carboxamide], for which the inhibition at 0.01 µM turned out to be 101%. Consider `COC(=O)c1scc2[nH]c(=O)n(-c3cc(C(=O)N(c4cccc(C#N)c4Cl)C4CC4)sc3Cl)c(=O)c12` [Example 38, Methyl 3-(2-chloro-5-{[(2-chloro-3-cyanophenyl)(cyclopropyl)amino]carbonyl}-3-thienyl)-2,4-dioxo-1,2,3,4-tetrahydrothieno[3,4-d]pyrimidine-5-carboxylate], for which the inhibition at 0.01 µM worked out at 95%. In the case of `O=C(O)c1scc2[nH]c(=O)n(-c3cc(S(=O)(=O)N4CCCCc5sccc54)sc3Cl)c(=O)c12` [Example 6, 3-[2-Chloro-5-(5,6,7,8-tetrahydro-4H-thieno[3,2-b]azepin-4-ylsulfonyl)-3-thienyl]-2,4-dioxo-1,2,3,4-tetrahydrothieno[3,4-d]pyrimidine-5-carboxylic acid], the inhibition at 0.01 µM was 97%. `CC(C)(C)OC(=O)CNC(=O)c1scc2[nH]c(=O)n(-c3cccc(S(=O)(=O)N4CCCc5ccccc54)c3)c(=O)c12` [Example 7 (1), N-({3-[3-(3,4-Dihydroquinolin-1(2H)-ylsulfonyl)phenyl]-2,4-dioxo-1,2,3,4-tetrahydrothieno[3,4-d]pyrimidin-5-yl}carbonyl) glycine tert-butyl ester]: the inhibition at 0.01 µM worked out at 92%. With `N#Cc1cccc(N(C(=O)c2cc(-n3c(=O)[nH]c4csc(C(N)=O)c4c3=O)c(Cl)s2)C2CC2)c1Cl` [Example 41, 3-(2-Chloro-5-{[(2-chloro-3-cyanophenyl)(cyclopropyl)amino]carbonyl}-3-thienyl)-2,4-dioxo-1,2,3,4-tetrahydrothieno[3,4-d]pyrimidine-5-carboxamide], the inhibition at 0.01 µM was determined as 100%.

Regarding `O=c1[nH]c2ccsc2c(=O)n1-c1cccc(S(=O)(=O)N2CCCc3ccccc32)c1` [Example 1, 3-[3-(3,4-Dihydroquinolin-1(2H)-ylsulfonyl)phenyl]thieno[3,2-d]pyrimidin-2,4(1H,3H)-dione], the inhibition at 0.01 µM stood at 86%.

Consider `Cc1nnc(-c2scc3[nH]c(=O)n(-c4cccc(S(=O)(=O)N5CCCc6ccccc65)c4)c(=O)c23)o1` [Example 12, 3-[3-(3,4-dihydroquinolin-1(2H)-ylsulfonyl)phenyl]-5-(5-methyl-1,3,4-oxadiazol-2-yl)thieno[3,4-d]pyrimidin-2,4(1H,3H)-dione], for which the inhibition at 0.01 µM came out at 72%. The same measure for `COC(=O)c1scc2[nH]c(=O)n(-c3cc(S(=O)(=O)N4CCCc5ccccc54)cs3)c(=O)c12` [Example 30, Methyl 3-[4-(3,4-dihydroquinolin-1(2H)-ylsulfonyl)-2-thienyl]-2,4-dioxo-1,2,3,4-tetrahydrothieno[3,4-d]pyrimidine-5-carboxylate]: 110%; for `COC(=O)c1scc2[nH]c(=O)n(-c3cc(C(=O)N(c4cccc(Br)c4Cl)C4CC4)sc3Cl)c(=O)c12` [Example 37, Methyl 3-(5-{[(3-bromo-2-chlorophenyl)(cyclopropyl)amino]carbonyl}-2-chloro-3-thienyl)-2,4-dioxo-1,2,3,4-tetrahydrothieno[3,4-d]pyrimidine-5-carboxylate]: 100%; for `O=c1[nH]c2csc(CO)c2c(=O)n1-c1cc(S(=O)(=O)N2CCCc3ccccc32)cs1` [Example 31, 3-[4-(3,4-Dihydroquinolin-1(2H)-ylsulfonyl)-2-thienyl]-5-(hydroxymethyl)thieno[3,4-d]pyrimidin-2,4(1H,3H)-dione]: 100%. In the case of `O=C(O)c1csc2[nH]c(=O)n(-c3cccc(S(=O)(=O)N4CCCc5ccccc54)c3)c(=O)c12` [Example 34 (3), 3-[3-(3,4-Dihydroquinolin-1(2H)-ylsulfonyl)phenyl]-2,4-dioxo-1,2,3,4-tetrahydrothieno[2,3-d]pyrimidine-5-carboxylic acid], the inhibition at 0.01 µM is 100%. For `CC(O)c1scc2[nH]c(=O)n(-c3cccc(S(=O)(=O)N4CCCc5ccccc54)c3)c(=O)c12` (stereo not drawn) [Example 24, 3-[3-(3,4-Dihydroquinolin-1(2H)-ylsulfonyl)phenyl]-5-(1-hydroxyethyl)thieno[3,4-d]pyrimidin-2,4(1H,3H)-dione], the inhibition at 0.01 µM worked out at 95%.
